{"source": "ChEMBL document CHEMBL3871262", "about": "“β-Ionone and its analogs as promising anticancer agents” (Eur J Med Chem, 2016)", "key": {"[1]": {"assay": "Cytotoxicity against human C4-2B cells harboring AR T877A mutant assessed as decrease in cell viability after 72 hrs by MTT assay", "type": "functional, cell-based", "conditions": "LNCaP C4-2B"}, "[2]": {"assay": "Cytotoxicity against human PC3 cells assessed as decrease in cell viability after 72 hrs by MTT assay", "type": "functional, cell-based", "conditions": "PC-3, 72 h"}, "[3]": {"assay": "Cytotoxicity against human DU145 cells assessed as decrease in cell viability after 72 hrs by MTT assay", "type": "functional, cell-based", "conditions": "DU-145, 72 h"}, "[4]": {"assay": "Cytotoxicity against human 22Rv1 cells harboring AR H874Y mutant assessed as decrease in cell viability after 72 hrs by MTT assay", "type": "functional, cell-based, CWR22R", "conditions": "22Rv1, 72 h"}, "[5]": {"assay": "Cytotoxicity against human LNCAP cells harboring AR T877A mutant assessed as decrease in cell viability after 72 hrs by MTT assay", "type": "functional, cell-based"}, "[6]": {"assay": "Growth inhibition of human MDA-MB-435 cells after 7 days relative to control", "type": "functional, cell-based", "conditions": "MDA-MB-435, 168 h"}, "Rattus norvegicus [7]": {"tested_on": "Rattus norvegicus", "assay": "(§1) Antitumor activity against DMBA-induced mammary carcinogenesis in Sprague-Dawley rat assessed as inhibition of tumor formation at 9 mmol/kg administered with AIN-76A diet treated 2 weeks prior to DMBA addition for 24 weeks by hematoxylin and eosin staining based microscopic analysis relative to DMBA treated control", "type": "functional"}, "Rattus norvegicus [8]": {"tested_on": "Rattus norvegicus", "assay": "Antitumor activity against DMBA-induced mammary carcinogenesis in Sprague-Dawley rat assessed as tumor incidence at 18 mmol/kg administered with AIN-76A diet treated 2 weeks prior to DMBA addition for 24 weeks by hematoxylin and eosin staining based microscopic analysis (reference value: 82.1%)", "type": "functional"}, "MDA-MB-435 [9]": {"tested_on": "MDA-MB-435", "assay": "Inhibition of cell mitosis in human MDA-MB-435 cells after 48 hrs relative to control", "type": "functional"}, "[10]": {"assay": "Antiproliferative activity against human MCF7 cells", "type": "functional, cell-based"}, "MDA-MB-435 [11]": {"tested_on": "MDA-MB-435", "assay": "Induction of apoptosis in human MDA-MB-435 cells assessed as inhibition of DNA synthesis after 48 hrs relative to control", "type": "functional"}, "[12]": {"assay": "Growth inhibition of human MDA-MB-435 cells at 100 uM after 7 days relative to control", "type": "functional", "conditions": "MDA-MB-435, 168 h, read-out: GI"}, "MCF7 [13]": {"tested_on": "MCF7", "assay": "Induction of apoptosis in human MCF7 cells assessed as inhibition of DNA synthesis at 48 hrs relative to control", "type": "functional"}, "[14]": {"assay": "Growth inhibition of human SGC7901 cells at 100 uM after 8 days by MTT assay relative to control", "type": "functional", "conditions": "SGC-7901, 192 h, read-out: GI"}, "MDA-MB-435 [15]": {"tested_on": "MDA-MB-435", "assay": "Inhibition of clone formation in human MDA-MB-435 cells after 48 hrs relative to control", "type": "functional"}, "[16]": {"assay": "Antiproliferative activity against human DU145 cells after 72 hrs by flow cytometry", "type": "functional, cell-based", "conditions": "DU-145, 72 h"}, "Rattus norvegicus [17]": {"tested_on": "Rattus norvegicus", "assay": "as §1, with “18” for “9”", "type": "functional"}, "Rattus norvegicus [18]": {"tested_on": "Rattus norvegicus", "assay": "Antitumor activity against DMBA-induced mammary carcinogenesis in Sprague-Dawley rat assessed as tumor incidence at 36 mmol/kg administered with AIN-76A diet treated 2 weeks prior to DMBA addition for 24 weeks by hematoxylin and eosin staining based microscopic analysis (reference value: 82.1%)", "type": "functional"}, "[19]": {"assay": "Antiproliferative activity against human LNCAP cells after 72 hrs by flow cytometry", "type": "functional, cell-based"}, "[20]": {"assay": "Growth inhibition of human SGC7901 cells at 50 uM after 8 days by MTT assay relative to control", "type": "functional", "conditions": "SGC-7901, 192 h, read-out: GI"}, "[21]": {"assay": "Antiproliferative activity against human SGC7901 cells", "type": "functional, cell-based", "conditions": "SGC-7901"}, "[22]": {"assay": "Growth inhibition of human MDA-MB-435 cells at 200 uM after 7 days relative to control", "type": "functional", "conditions": "MDA-MB-435, 168 h, read-out: GI"}, "Rattus norvegicus [23]": {"tested_on": "Rattus norvegicus", "assay": "as §1, with “36” for “9”", "type": "functional"}, "[24]": {"assay": "Growth inhibition of human SGC7901 cells after 24 to 48 hrs by MTT assay", "type": "functional, cell-based", "conditions": "SGC-7901"}, "[25]": {"assay": "Growth inhibition of human SGC7901 cells at 25 uM after 24 to 48 hrs by MTT assay relative to control", "type": "functional", "conditions": "SGC-7901, read-out: GI"}, "Rattus norvegicus [26]": {"tested_on": "Rattus norvegicus", "assay": "Antitumor activity against DMBA-induced mammary carcinogenesis in Sprague-Dawley rat assessed as tumor incidence at 9 mmol/kg administered with AIN-76A diet treated 2 weeks prior to DMBA addition for 24 weeks by hematoxylin and eosin staining based microscopic analysis (reference value: 82.1%)", "type": "functional"}, "[27]": {"assay": "Antiproliferative activity against human PC3 cells after 72 hrs by flow cytometry", "type": "functional, cell-based", "conditions": "PC-3, 72 h"}, "[28]": {"assay": "Growth inhibition of human SGC7901 cells at 25 uM after 8 days by MTT assay relative to control", "type": "functional", "conditions": "SGC-7901, 192 h, read-out: GI"}, "[29]": {"assay": "Growth inhibition of human SGC7901 cells at 100 uM after 24 to 48 hrs by MTT assay relative to control", "type": "functional", "conditions": "SGC-7901, read-out: GI"}, "[30]": {"assay": "Growth inhibition of human SGC7901 cells at 200 uM after 8 days by MTT assay relative to control", "type": "functional", "conditions": "SGC-7901, 192 h, read-out: GI"}, "[31]": {"assay": "Growth inhibition of human MDA-MB-435 cells at 25 uM after 7 days relative to control", "type": "functional", "conditions": "MDA-MB-435, 168 h, read-out: GI"}, "[32]": {"assay": "Growth inhibition of human SGC7901 cells at 200 uM after 24 to 48 hrs by MTT assay relative to control", "type": "functional", "conditions": "SGC-7901, read-out: GI"}, "[33]": {"assay": "Growth inhibition of human SGC7901 cells at 50 uM after 24 to 48 hrs by MTT assay relative to control", "type": "functional", "conditions": "SGC-7901, read-out: GI"}, "MCF7 [34]": {"tested_on": "MCF7", "assay": "Inhibition of cell mitosis in human MCF7 cells after 48 hrs relative to control", "type": "functional"}, "[35]": {"assay": "Growth inhibition of human MDA-MB-435 cells at 50 uM after 7 days relative to control", "type": "functional", "conditions": "MDA-MB-435, 168 h, read-out: GI"}, "[36]": {"assay": "Cytotoxicity against human MDA PCa 2b cells harboring AR T877A/L701H double mutant assessed as decrease in cell viability after 72 hrs by MTT assay", "type": "functional, cell-based"}}, "note": "pIC50: −log10 of the molar value."}
{"smiles": "COc1cc(/C=C(\\C(=O)/C=C/C2=C(C)C(O)CCC2(C)C)C(=O)/C=C/c2ccc(O)c(OC)c2)ccc1O", "note": "(stereo not given)", "values": [{"measurement": "pIC50", "setting": "[1]", "value": "5.25 to 5.92"}, {"measurement": "pIC50", "setting": "[2]", "value": "5.25 to 5.92"}, {"measurement": "pIC50", "setting": "[3]", "value": "5.25 to 5.92"}, {"measurement": "pIC50", "setting": "[4]", "value": "5.25 to 5.92"}, {"measurement": "pIC50", "setting": "[5]", "value": "5.25 to 5.92"}]}
{"smiles": "CC(=O)/C=C/C1=C(C)CCCC1(C)C", "note": "[BETA-IONONE]", "values": [{"measurement": "pIC50", "setting": "[6]", "value": 4.38}, {"measurement": "inhibition in vivo at 9000 µmol/kg", "setting": "Rattus norvegicus [7]", "value": 35.4, "unit": "%"}, {"measurement": "Activity", "setting": "Rattus norvegicus [8]", "value": 25.9, "unit": "%"}, {"measurement": "inhibition (INH)", "setting": "MDA-MB-435 [9]", "value": 75.12, "unit": "%"}, {"measurement": "pIC50", "setting": "[10]", "value": 3.98}, {"measurement": "inhibition (INH)", "setting": "MDA-MB-435 [11]", "value": 78.35, "unit": "%"}, {"measurement": "inhibition of growth at 100 µM", "setting": "[12]", "value": 81.5, "unit": "%"}, {"measurement": "inhibition (INH)", "setting": "MCF7 [13]", "value": "35.1 - 81.89%"}, {"measurement": "inhibition of growth at 100 µM", "setting": "[14]", "value": 74.4, "unit": "%"}, {"measurement": "inhibition (INH)", "setting": "MDA-MB-435 [15]", "value": 95.55, "unit": "%"}, {"measurement": "pIC50", "setting": "[16]", "value": 3.68}, {"measurement": "inhibition in vivo at 18000 µmol/kg", "setting": "Rattus norvegicus [17]", "value": 68.3, "unit": "%"}, {"measurement": "Activity", "setting": "Rattus norvegicus [18]", "value": 10, "unit": "%"}, {"measurement": "pIC50", "setting": "[19]", "value": 3.89}, {"measurement": "inhibition of growth at 50 µM", "setting": "[20]", "value": 28.2, "unit": "%"}, {"measurement": "pIC50", "setting": "[21]", "value": 3.76}, {"measurement": "inhibition of growth at 200 µM", "setting": "[22]", "value": 84.9, "unit": "%"}, {"measurement": "inhibition in vivo at 36000 µmol/kg", "setting": "Rattus norvegicus [23]", "value": 87.8, "unit": "%"}, {"measurement": "pIC50", "setting": "[24]", "value": 4.05}, {"measurement": "inhibition of growth at 25 µM", "setting": "[25]", "value": 12, "unit": "%"}, {"measurement": "Activity", "setting": "Rattus norvegicus [26]", "value": 53.3, "unit": "%"}, {"measurement": "pIC50", "setting": "[27]", "value": 3.89}, {"measurement": "inhibition of growth at 25 µM", "setting": "[28]", "value": 25.9, "unit": "%"}, {"measurement": "inhibition of growth at 100 µM", "setting": "[29]", "value": 78.2, "unit": "%"}, {"measurement": "inhibition of growth at 200 µM", "setting": "[30]", "value": 90.1, "unit": "%"}, {"measurement": "inhibition of growth at 25 µM", "setting": "[31]", "value": 45.6, "unit": "%"}, {"measurement": "inhibition of growth at 200 µM", "setting": "[32]", "value": 94.2, "unit": "%"}, {"measurement": "inhibition of growth at 50 µM", "setting": "[33]", "value": 30.6, "unit": "%"}, {"measurement": "inhibition (INH)", "setting": "MCF7 [34]", "value": 87.79, "unit": "%"}, {"measurement": "inhibition of growth at 50 µM", "setting": "[35]", "value": 71.2, "unit": "%"}]}
{"smiles": "CC1=C(/C=C/C(=O)/C=C/c2csc3ccccc23)C(C)(C)CCC1O", "note": "(stereo not given)", "values": [{"measurement": "pIC50", "setting": "[1]", "value": "5.70 to 6.24"}, {"measurement": "pIC50", "setting": "[36]", "value": "5.70 to 6.24"}, {"measurement": "pIC50", "setting": "[2]", "value": "5.70 to 6.24"}, {"measurement": "pIC50", "setting": "[4]", "value": "5.70 to 6.24"}, {"measurement": "pIC50", "setting": "[5]", "value": "5.70 to 6.24"}]}
